Read-outs that look alike come from different tables or passages of the source.
How the values were obtained:
Human protein Z (PZ) = target: T1, Human protein Z (PZ) (Homo sapiens, UniProt P22891); test: SPR binding of porphyrins to immobilized PZ (single-cycle kinetics); settings: for Kd: heterogenous ligand model
T1 construct: purchased CellSystems GmbH HCPZ-0220
Procedure: (§1) SPR experiments were conducted on a Biacore 8K instrument (Cytiva) to investigate the interaction of PZ with heme, as established before.^[ [19] ^, [35] ^, [37] ^, [43] ^] In brief, PZ (10 µg mL^−1) was dissolved in 10 mM sodium acetate buffer (pH 3.5) and immobilized onto a CM5 sensor chip via standard amine coupling, resulting in a final immobilization level of 767 RU. Heme (stock solution in 30 mM NaOH) was further diluted in running buffer (10 mM HEPES, 150 mM NaCl, and 0.05% Tween 20, pH 7.4). The same was performed with zinc (II) protoporphyrin IX and protoporphyrin IX (Frontier Scientific). Binding kinetics were assessed by injecting seven increasing concentrations of heme (187.5–12,000 nM) in a single‐cycle kinetics format at 25 °C and a flow rate of 30 µL min^−1. Data analysis was performed by global fitting using Biacore Insight Evaluation Software, version 3.0.12.15655 (Cytiva).

PZ = target: T2, PZ (Homo sapiens, UniProt P22891); test: aPTT-based one-stage clotting assay: anticoagulant function of PZ against FXa in the presence of heme; type: biochemical; settings: PZ 32 nM, FXa 0.1 nM; for impact alone on the procoagulant function of FXa or on clotting of pure plasma (aPTT): controls, heme 0.06 – 20 µM
T2 construct: purchased CellSystems GmbH HCPZ-0220 (PZ); HCXA-0060 (FXa)
T2 sequence (P22891 41-400): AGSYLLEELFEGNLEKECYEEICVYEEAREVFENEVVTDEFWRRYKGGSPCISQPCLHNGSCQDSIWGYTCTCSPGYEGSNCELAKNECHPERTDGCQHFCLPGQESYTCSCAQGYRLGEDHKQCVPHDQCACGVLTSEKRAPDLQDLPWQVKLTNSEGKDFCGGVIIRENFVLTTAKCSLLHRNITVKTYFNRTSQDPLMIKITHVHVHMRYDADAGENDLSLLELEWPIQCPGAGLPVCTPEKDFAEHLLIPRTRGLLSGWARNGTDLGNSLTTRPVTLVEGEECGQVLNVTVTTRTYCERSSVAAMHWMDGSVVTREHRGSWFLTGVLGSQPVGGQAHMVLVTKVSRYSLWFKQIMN
Procedure: To estimate an effect on molecular level, the structure of the PZ–ZPI complex (PDB: 3H5C^[ [42] ^]) was first inspected with heme attached to PZ. The anticoagulant function of PZ was then analyzed in the presence of heme by a one‐stage clotting assay, which was inspired by previous work from us and others.^[ [19] ^, [27] ^] The aPTT‐based assay was performed with the ball coagulometer KC 4 A (Amelung, Lemgo, Germany). PZ (320 nM) was preincubated with different concentrations of heme (0–100 µM) for 30 min in 1x PBS, pH 7.4. Afterward, 50 µL of the PZ–heme mixture was incubated with 50 µL of Actin FSL, 50 µl CaCl2 (30 mM), and 50 µL FXa (0.5 nM) at 37 °C for 3 min. Finally, 50 µL citrated pooled plasma was added and the clotting time was automatically recorded. The following mixtures served as controls: 1) 50 µL PBS‐heme + 50 µL Actin FSL + 50 µL CaCl2 + 50 µL FXa + 50 µL citrated plasma, 2) 50 µL PBS‐heme + 50 µL Actin FSL + 50 µL CaCl2 + 50 µL PBS + 50 µL citrated plasma, 3) 50 µL PZ–heme + 50 µL Actin FSL + 50 µL CaCl2 + 50 µL PBS + 50 µL citrated plasma, 4) 50 µL PZ‐PBS + 50 µL Actin FSL + 50 µL CaCl2 + 50 µL FXa + 50 µL citrated plasma, 5) 50 µL PZ‐PBS + 50 µL Actin FSL + 50 µL CaCl2 + 50 µL PBS + 50 µL citrated plasma, 6) 50 µL PBS + 50 µL Actin FSL + 50 µL CaCl2 + 50 µL FXa + 50 µL citrated plasma, and 7) 50 µL PBS + 50 µL Actin FSL + 50 µL CaCl2 + 50 µL PBS + 50 µL citrated plasma. Final concentrations in the approach were 6 mM CaCl2, 0–20 µM heme, 32 nM and PZ, 0.1 nM FXa. Data were normalized against the clotting time of citrated plasma only (control (7)) and evaluated as the mean of triplicates. The IC50 was determined by fitting the curves with nonlinear regression (GraphPad Prism, version 10.5.0).

[1] = Substrate control of the chromogenic assay without thrombin; type: biochemical; settings: no thrombin; heme 1 – 1000 nM, PZ 10 nM; thrombin = 100 %
Procedure: Herein, an earlier established chromogenic thrombin amidolytic activity assay system was thus used, inspired by Hogg and Stenflo.^[ [19] ^, [28] ^] PZ (final concentration: 10 nM) was first incubated for 30 min with different heme concentrations (final concentrations: 1–1000 nM). Afterward, the heme–PZ mixture was incubated with thrombin for 10 min and the PZ–thrombin mixture (50 µL; final thrombin concentration: 15 nM) was transferred onto a 96‐well plate (Greiner Bio‐One GmbH). Finally, 5 µL of the substrate solution (H‐D‐Phe‐Pip‐Arg‐pNA x 2 HCl (S‐2238); final concentration: 273 µM) was added. Immediately, kinetic measurements at 405 nm were started, using an Infinite 200 Pro spectrophotometer. Heme only, thrombin only, and PZ‐heme only served as controls. For evaluation, the thrombin activity was determined as the change of absorbance per second and always normalized against the basal thrombin activity without PZ. Data were analyzed as the mean of triplicate and the IC50 was calculated by nonlinear regression (GraphPad Prism, version 10.5.0). […]
thrombinheme (0 nM)heme (1 nM) thrombin heme (3.16 nM)heme (10 nM)heme (31.6 nM)heme (100 nM)heme (316 nM)heme (1000 nM)PZ+heme (0 nM)PZ+heme (1 nM) PZ+heme (3.16 nM)PZ+heme (10 nM)PZ+heme (31.6 nM)PZ+heme (100 nM)PZ+heme (316 nM)PZ+heme (1000 nM)
Figure S5. […]

thrombin = thrombin (Homo sapiens, UniProt P00734); test: SPR binding of porphyrins to immobilized thrombin; set-up: human α‐thrombin (HCT‐0020); purchased CellSystems GmbH HCT-0020; settings: heterogeneous ligand model
Procedure: as §1
Figure S7. Heme binds to thrombin. For SPR analysis, thrombin (10 µg/ml) was dissolved in 10 mM sodium acetate buffer (pH 6.0) and immobilized onto a CM5 sensor chip via standard amine coupling, resulting in a final immobilization level of 1826.1 RU. Binding kinetics were assessed by injecting six increasing concentrations of heme (187.5 – 6,000 nM) in a single-cycle kinetics format at 25°C and a flow rate of […]
transient nature of heme binding to thrombin. […]

T1 sequence (P22891 41-400): as above

Hemin [heme]
k a1 (association rate) (Human protein Z (PZ); first binding event): 47300 M⁻¹ s⁻¹ | k d1 (dissociation rate) (Human protein Z (PZ); first binding event): 0.00583 s⁻¹ | Kd (Human protein Z (PZ); heme 187.5 nM–12 µM, 25 °C, read-out: K D1 (heme-binding affinity for PZ)): 123 nM | Kd (Human protein Z (PZ); read-out: K D2 (second binding event, likely unspecific)): 8570 nM | k a2 (association rate) (Human protein Z (PZ); second binding event): 845 M⁻¹ s⁻¹ | k d2 (dissociation rate) (Human protein Z (PZ); second binding event): 0.00724 s⁻¹ | heme level at which the procoagulant function of FXa was restored (PZ): ≥ 2 µM | IC50 (PZ; heme 0.06–20 µM, citrated pooled plasma, read-out: IC50 (inhibition of the anticoagulant function of PZ against FXa)): 830 ± 210 nM | impact alone on the procoagulant function of FXa or on clotting of pure plasma (aPTT) (PZ): did not exert any significant impact | impact alone on the procoagulant function of FXa or on clotting of pure plasma (aPTT) (PZ; listed as Heme): did neither affect | relative amidolytic activity toward substrate S-2238 [1]: ~ 0% | Kd (thrombin; read-out: KD1 (porphyrin binding to thrombin)): 92.9 nM | Kd (thrombin; read-out: KD2 (porphyrin binding to thrombin)): 709 nM

Source: PMC12781162, “Human Protein Z as the Second Known Heme‐Binding Protein from the Endogenous Blood Coagulation Inhibitor System” (Chembiochem, 2025)
